Reference: patent US9226950B2, “Method and composition for treating diabetes mellitus” (National Dong Hwa University, priority 2013, dated 2016)

What was measured:
AMPK = assay: Phosphorylation of AMPK on Thr172 in L6 cells, Western blot; format: cell-based, mouse; conditions: 100 μM tetracosanol 90 min, then 10 μM insulin 30 min, FIG. 2
Procedure: […] muscle myoblast cells (L6) was a generous gift from Professor Hitoshi Ashida's Lab. (Kobe University, Kobe, Japan). The cells were grown and maintained in α-minimal essential medium (α-MEM, 12000022, GIBCO, CA, USA) containing 10% fetal bovine serum (FBS, GIBCO) and 1% penicillin streptomycin (GIBCO) in a cell culture incubator with 5% CO2 at 37° C. Prior to the following experiments, the cells were seeded and cultured at a density of 8×10^3 cells per well in 96-well plates or 2.5×10^5 cells per well in 6-well plates. After the myoblasts achieved 80% confluence, the cells were incubated for 5 days in the α-MEM supplemented with 2% FBS to induce differentiation to myotubes.
The L6 cells were fully differentiated with α-MEM supplemented with 2% FBS for 5 days to myotubes. […] The levels of the proteins including phospho-AKT (Thr308), AKT, phospho-AMPK (Thr172), and AMPK (Cell Signaling) were detected and evaluated by Western blot with primary antibody.
The cells after treatments were collected and washed twice in cold KRH buffer, and then lysed in ice-cold RIPA buffer incubation at 4° C. for 60 min. After centrifugation at 12,000×g for 30 min at 4° C., the supernatant was kept and quantified by Bradford protein assay (Bio-Rad, Hercules, Calif., USA). […] Acquired data were analyzed and compared the difference among treatments. […]

[1] = tested on: S961-induced hyperglycemic mice (DM mice); assay: Oral glucose tolerance test (OGTT) in S961-induced hyperglycemic mice; format: in vivo, C57BL/6 mouse; conditions: D-glucose 2 g/kg
Procedure: Animal experiments were approved by the National Dong-Hwa University Animal Ethics Committee and were used according to the “Guide for the Care and Use of Laboratory Animals” of National Dong-Hwa University. The C57BL/6 mouse were obtained National Laboratory Animal Center (Taipei, Taiwan) and kept at controlled environmental conditions with room temperature (22±2° C.) and humidity (50±10%). The 12 hr light (0600 am-1800 pm) and 12 hr dark cycle was maintained throughout the study. Mice had free access to food and water and maintained on a standard laboratory diet (containing carbohydrates: 60%, proteins: 28%, lipids: 12%, and vitamins: 3%).
The 8 weeks old male C57 BL/6 mice after fasting 12 hr were used in this test. The mice were orally administered (p.o.) with tetracosanol (dissolved in PEG and EtOH, 25 mg/kg Bwt) or Metformin (100 mg/kg Bwt) for 3 hr. To investigate the effect of tetracosanol on the DM mice, the mice were intraperitoneally injected (i.p.) with S961 (50 nmol/kg Bwt) to induce hyperglycemia, prior to the administration of D-glucose (2 g/kg Bwt, p.o.). At approximately the 0, 30, 60, 90, and 120 min., the blood of each mouse was sampled by venipuncture from the tail vein for the determination of blood glucose. Blood glucose was immediately determined by the glucose oxidase method using glucose analyzer (Accu-Chek, Roche).
To investigate the glycemic control effect of tetracosanol on the hyperglycemic mice, hyperglycemic mice were induced by insulin receptor antagonist-S961. The mice of each group were treated with or without Metformin (Met) as positive control, or treated with or without tetracosanol (Tet). Then, all the groups were administered with D-glucose (2 g/kg Bwt) (n=6 in each group). The tetracosanol for glycemic control was confirmed by OGTT.
8 weeks old male C57 BL/6 mice after fasting 12 hr were employed in this study. […] The blood glucose was determined by the glucose oxidase method using glucose analyzer (Accu-Chek, Roche). […]

## CCCCCCCCCCCCCCCCCCCCCCCCO [tetracosanol]
AMPK
  insulin-independent GLUT4 translocation response (phospho-AMPK on Thr172): no insulin-independent GLUT4 translocation response
[1]; DM mice (S961), p.o., comparison with metformin, FIG. 6(a)
  blood glucose change in OGTT: even better than metformin
[1]; tetracosanol 25 mg/kg Bwt p.o. versus Metformin 100 mg/kg Bwt, S961 50 nmol/kg i.p., FIG. 5(a)
  blood glucose change in OGTT: profile similar to the treatment with metformin
[1]; tetracosanol 25 mg/kg Bwt p.o., DM mice (S961) and normal mice (Con), FIG. 5(b)
  AUC of the blood glucose change in OGTT: good efficacy in glycemic control
